pIC50: −log10 of the molar value. The source made the active and inactive calls. The calls are words filed in the database; no cut-off is given here.
Columns and labels:
[1] = target: T1, Tyrosine-protein phosphatase non-receptor type 1 (Homo sapiens) (UniProt P18031); assay: Inhibition of recombinant human PTP1B (1 to 321 residues) expressed in Escherichia coli at 10 uM using p-nitrophenyl phosphate as substrate incubated for 30 mins relative to control
T1 sequence (whole entry): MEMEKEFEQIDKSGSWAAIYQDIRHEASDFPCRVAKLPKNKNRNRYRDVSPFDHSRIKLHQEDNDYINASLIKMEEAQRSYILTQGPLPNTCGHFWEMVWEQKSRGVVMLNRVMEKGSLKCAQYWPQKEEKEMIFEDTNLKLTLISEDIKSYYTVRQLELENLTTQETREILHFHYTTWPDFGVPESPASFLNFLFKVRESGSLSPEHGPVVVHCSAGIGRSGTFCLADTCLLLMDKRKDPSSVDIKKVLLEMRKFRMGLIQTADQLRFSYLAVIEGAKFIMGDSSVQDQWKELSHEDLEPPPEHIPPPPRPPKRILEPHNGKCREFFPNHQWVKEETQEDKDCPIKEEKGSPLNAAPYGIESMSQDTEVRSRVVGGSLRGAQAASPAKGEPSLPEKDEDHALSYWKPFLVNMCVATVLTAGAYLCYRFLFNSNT

Homo sapiens = organism: Homo sapiens; assay: Inhibition of alpha-Glucosidase (unknown origin) at 10 uM using pNPG as substrate incubated for 30 mins relative to control
[2] = target: T2, Tyrosine-protein phosphatase non-receptor type 1 (Homo sapiens, UniProt P18031); assay: Inhibition of recombinant human PTP1B (1 to 321 residues) expressed in Escherichia coli using p-nitrophenyl phosphate as substrate incubated for 30 mins
T2 sequence (P18031 whole entry): T1 sequence (whole entry)

[3] = Cytotoxicity against human insulin resistant HepG2 cells assessed as cell viability at 10 uM by CCK8 assay relative to control; assay type: cell-based; details: read-out: Activity
HepG2 [4] = assay: Induction of glucose uptake in human insulin resistant HepG2 cells at 10 uM incubated for 24 hrs by GOD-POD method relative to control; assay type: functional
[5] = Inhibition of alpha-Glucosidase (unknown origin) using pNPG as substrate incubated for 30 mins; parameters: species or system Homo sapiens
HepG2 [6] = assay: Induction of glucose uptake in human insulin resistant HepG2 cells at 500 uM incubated for 24 hrs by GOD-POD method relative to control; assay type: functional, cell-based

SMILES	inhibition [1] [%]	inhibition (Homo sapiens) [%]	pIC50 [2]	pIC50 [5]	viability at 10 µM [3] [%]	Activity (HepG2 [4]) [%]	Activity (HepG2 [6])
COc1cc2oc(-c3ccc(O)cc3O)cc2c(OC)c1CC=C(C)C	> 60	> 40	5.48	–	80 to 110	–	–
COc1ccc(C2COc3c(CC=C(C)C)c(O)cc(O)c3C2=O)c(O)c1 (stereo not given)	> 60	> 40	–	–	80 to 110	–	–
COc1c(CC=C(C)C)c(O)cc2oc(-c3ccc(O)cc3O)cc12 [LICOCOUMARONE]	> 60	61.2	–	–	80 to 110	>80	–
COc1cc(O)c2c(=O)c(OC)c(-c3ccc(O)cc3)oc2c1 [KUMATAKENIN]	> 60	> 40	–	–	80 to 110	–	–
COc1cc2c(c(O)c1CC=C(C)C)C(=O)[C@H](c1ccc(O)cc1)CO2	> 60	> 40	–	–	80 to 110	95	–
CC(C)=CCc1c(O)cc2c(c1O)C(=O)[C@@](O)(c1ccc(O)c3c1OC(C)(C)C=C3)CO2	> 60	> 40	5.23	4.70	80 to 110	–	–
COc1c(CC=C(C)C)c(O)cc2oc(=O)c(-c3ccc(O)cc3O)cc12 [GLYCYCOUMARIN]	> 60	> 40	–	7.00	80 to 110	–	–
COc1cc(O)ccc1/C=C/C(=O)c1ccc(O)cc1 [ECHINATIN]	> 60	> 40	–	–	80 to 110	–	–
O=c1c(-c2ccc(O)cc2)coc2cc(O)ccc12 [DAIDZEIN]	> 60	> 40	–	–	80 to 110	>80	–
COc1cc2c(c(OC)c1CC=C(C)C)C[C@H](c1ccc(O)cc1O)CO2 [GLYASPERIN D]	> 60	> 40	–	–	80 to 110	–	–
COc1c(CC=C(C)C)c(O)cc2c1[C@@H]1Oc3cc4c(cc3[C@@H]1CO2)C=CC(C)(C)O4	> 60	> 40	5.32	–	80 to 110	–	–
COc1cc2c(c(OC)c1CC=C(C)C)C[C@H](c1ccc(O)c3c1OC(C)(C)C=C3)CO2	–	–	5.14	–	–	–	–
CC1(C)C=Cc2cc(-c3coc4cc(O)cc(O)c4c3=O)ccc2O1	> 60	> 40	–	–	80 to 110	–	–
COc1ccc([C@@H]2COc3cc(O)c(CC=C(C)C)cc3C2)c(O)c1	> 60	> 40	–	–	80 to 110	–	–
Oc1ccc2c(c1)OC[C@@H](c1cc3c(cc1O)OCO3)C2	–	–	–	5.42	–	–	–
CC1(C)C=Cc2cc(/C=C/C(=O)c3ccc(O)cc3O)ccc2O1	> 60	> 40	–	–	80 to 110	–	–
CC(C)=CCc1c(O)ccc(-c2cc3ccc(O)cc3o2)c1O [2'-O-DEMETHYLBIDWILLOL B]	> 60	61.7	5.04	5.07	80 to 110	–	–
CC1(C)C=Cc2c(ccc([C@@H]3COc4cc(O)cc(O)c4C3=O)c2O)O1	> 60	> 40	–	–	80 to 110	–	–

SMILES	inhibition [1] [%]	inhibition (Homo sapiens) [%]	pIC50 [2]	pIC50 [5]	viability at 10 µM [3] [%]	Activity (HepG2 [4]) [%]	Activity (HepG2 [6])
CN(C)C(=N)NC(=N)N	–	–	–	–	–	–	Active
COc1ccc(-c2coc3cc(O)cc(O)c3c2=O)cc1 [BIOCHANIN]	> 60	> 40	–	5.42	80 to 110	–	–
COc1cc(O)ccc1-c1cc2c(OC)c(CC=C(C)C)c(O)cc2o1	> 60	> 40	5.28	–	80 to 110	–	–
COc1ccc([C@@H]2COc3cc(O)ccc3C2)c(O)c1	> 60	> 40	–	–	80 to 110	–	–
O=c1c(-c2ccc(O)cc2)coc2cc(O)cc(O)c12 [GENISTEIN]	> 60	58.4	–	–	80 to 110	–	–
O=C(/C=C/c1ccc(O)cc1)c1ccc(O)cc1O [ISOLIQUIRITIGENIN]	> 60	> 40	–	5.25	80 to 110	–	–
C[C@H]1O[C@H](O[C@H]2[C@H](O)[C@@H](O)[C@@H](O[C@H]3[C@H](O)[C@@H](O)C(O)O[C@@H]3CO)O[C@@H]2CO)[C@H](O)[C@@H](O)[C@@H]1N[C@H]1C=C(CO)[C@@H](O)[C@H](O)[C@H]1O (stereo not given in full) [ACARBOSE]	–	–	–	3.78	–	–	–
COc1cc2c(c(OC)c1CC=C(C)C)C[C@H](c1ccc(O)c(CC=C(C)C)c1O)CO2	> 60	> 40	–	–	80 to 110	–	–
CC(C)=CCc1cc([C@@H]2CC(=O)c3c(O)cc(O)cc3O2)ccc1O	> 60	> 40	–	–	80 to 110	–	–
CC1(C)C=Cc2cc(-c3coc4cc(O)cc(O)c4c3=O)cc(O)c2O1	> 60	> 40	–	–	80 to 110	–	–
O=c1c(O)c(-c2ccc(O)cc2)oc2cc(O)cc(O)c12 [KAEMPFEROL]	> 60	> 40	–	–	80 to 110	>80	–
C=C(C)[C@@H](O)Cc1c(O)ccc([C@@H]2COc3cc(OC)c(CC=C(C)C)c(OC)c3C2)c1O	> 60	> 40	5.17	–	80 to 110	–	–
COc1c(CC=C(C)C)c(O)cc2c1[C@@H]1Oc3cc(O)c(CC=C(C)C)cc3[C@@H]1CO2	–	–	5.36	–	–	–	–
COc1c(CC=C(C)C)c(O)cc2c1C[C@H](c1ccc(O)c(CC=C(C)C)c1O)CO2 [LICORICIDIN]	–	–	5.23	–	–	–	–
COc1c(CC=C(C)C)c(O)cc2c1-c1oc3cc(O)ccc3c1CO2	> 60	> 40	5.08	6.52	80 to 110	>80	–
COc1cc2c(c(O)c1CC=C(C)C)C(=O)C(c1ccc(O)cc1O)CO2 (stereo not given)	> 60	> 40	–	–	80 to 110	>80	–
COc1cc2oc(=O)c3c4ccc(O)cc4oc3c2c(OC)c1CC=C(C)C	> 60	> 40	–	–	80 to 110	–	–

Continued, in another order:

inhibition [1] [%]	inhibition (Homo sapiens) [%]	pIC50 [2]	pIC50 [5]	SMILES	viability at 10 µM [3] [%]	Activity (HepG2 [4]) [%]	Activity (HepG2 [6])
> 60	> 40	5.37	–	COc1cc2c(c(O)c1CC=C(C)C)C(=O)C(c1ccc(O)c(CC=C(C)C)c1O)CO2 (stereo not given)	80 to 110	–	–
> 60	> 40	–	–	CC(C)=CCc1c(O)ccc([C@@]2(O)COc3cc(O)c(CC=C(C)C)c(O)c3C2=O)c1O	80 to 110	–	–
–	–	–	5.49	CC(C)=CCc1cc(-c2oc3cc(O)c(CC=C(C)C)c(O)c3c(=O)c2O)ccc1O	–	–	–
–	> 40	–	–	CC(C)=CCc1cc([C@@H]2COc3cc(O)c(CC=C(C)C)c(O)c3C2=O)ccc1O	–	–	–
> 60	> 40	–	–	CC(C)=CCc1c(O)cc2oc(-c3ccc(O)cc3)c(O)c(=O)c2c1O [LICOFLAVONOL]	80 to 110	–	–
> 60	> 40	5.68	–	CC(C)=CCc1cc([C@@H]2CC(=O)c3c(O)cc(O)c(CC=C(C)C)c3O2)ccc1O [LESPEDEZAFLAVANONE B]	80 to 110	–	–
–	–	5.15	–	CC(C)=CCc1c(O)ccc(-c2coc3c(CC=C(C)C)c(O)cc(O)c3c2=O)c1O	–	–	–
–	34.2	–	–	CC(C)=CCc1cc(-c2coc3cc(O)cc(O)c3c2=O)ccc1O	–	–	–
–	–	5.35	–	COc1c(-c2ccc(O)cc2)oc2cc(O)c(CC=C(C)C)c(O)c2c1=O	–	–	–
> 60	> 40	5.12	–	CC(C)=CCc1c(O)ccc(-c2coc3cc(O)c(CC=C(C)C)c(O)c3c2=O)c1O	80 to 110	–	–
> 60	20.1	–	–	CC(C)=CCc1c(O)ccc(-c2coc3cc(O)cc(O)c3c2=O)c1O	80 to 110	–	–
> 60	> 40	–	–	CC(C)=CCc1c(O)ccc(C2COc3cc(O)c(CC=C(C)C)c(O)c3C2=O)c1O (stereo not given)	80 to 110	–	–
–	–	5.11	–	CC(C)=CCc1cc(-c2coc3cc(O)c(CC=C(C)C)c(O)c3c2=O)cc(O)c1O	–	–	–
–	–	5.64	4.79	CC(C)=CCc1c(O)c(CC=C(C)C)c2occ(-c3ccc(O)cc3)c(=O)c2c1O	–	–	–
–	–	5.28	–	COc1cc2occ(-c3ccc(O)cc3O)c(=O)c2c(O)c1CC=C(C)C	–	–	–
